Broadly, the inhibition is the relative decrease from the control value, in per cent. The term IC50 denotes the concentration that inhibits the measured activity by half. Read a high IC50 as weaker potency.

One assay concerns the target KRas WT (Homo sapiens, UniProt P01116). Nature of the assay: KRas binding assay (TR-FRET displacement), KRas WT. Conditions: single point, 10 nM compound. A general note: TR-FRET usually uses a lanthanide donor and a delayed reading to cut background.
For another assay, the target named is KRas G12A (Homo sapiens, UniProt P01116, G12A). In kind it is binding. Conditions: single point, 10 nM compound, read-out: Binding to KRas (% inhibition at 10 nM) G12A.
KRas G12A, sequence (P01116 1-169 isoform P01116-2 G12A): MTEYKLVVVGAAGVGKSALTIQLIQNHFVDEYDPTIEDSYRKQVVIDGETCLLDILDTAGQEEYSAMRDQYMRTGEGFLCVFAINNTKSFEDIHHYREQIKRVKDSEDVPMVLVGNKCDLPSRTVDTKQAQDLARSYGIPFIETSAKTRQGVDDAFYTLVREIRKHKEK
The target in the next assay is KRas G12C (Homo sapiens, UniProt P01116, G12C). The class given is binding. Conditions: single point, 10 nM compound, read-out: Binding to KRas (% inhibition at 10 nM) G12C.
KRas G12C, sequence (P01116 1-169 isoform P01116-2 G12C): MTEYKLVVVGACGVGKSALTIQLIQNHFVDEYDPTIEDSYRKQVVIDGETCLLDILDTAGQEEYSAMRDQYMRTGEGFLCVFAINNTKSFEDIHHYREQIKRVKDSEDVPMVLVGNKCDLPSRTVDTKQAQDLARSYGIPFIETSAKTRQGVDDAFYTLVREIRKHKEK
The target in another assay is KRas G12S (Homo sapiens, UniProt P01116, G12S). The class given is binding. Conditions: single point, 10 nM compound, read-out: Binding to KRas (% inhibition at 10 nM) G12S.
KRas G12S, sequence (P01116 1-169 isoform P01116-2 G12S): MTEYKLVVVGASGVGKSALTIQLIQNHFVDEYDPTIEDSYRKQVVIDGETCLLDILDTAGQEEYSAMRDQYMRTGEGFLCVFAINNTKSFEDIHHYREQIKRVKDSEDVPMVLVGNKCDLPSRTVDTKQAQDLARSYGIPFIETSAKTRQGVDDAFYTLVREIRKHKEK
For another assay, the target named is KRas G13D (Homo sapiens, UniProt P01116, G13D). The class given is binding. Conditions: single point, 10 nM compound, read-out: Binding to KRas (% inhibition at 10 nM) G13D.
KRas G13D, sequence (P01116 1-169 isoform P01116-2 G13D): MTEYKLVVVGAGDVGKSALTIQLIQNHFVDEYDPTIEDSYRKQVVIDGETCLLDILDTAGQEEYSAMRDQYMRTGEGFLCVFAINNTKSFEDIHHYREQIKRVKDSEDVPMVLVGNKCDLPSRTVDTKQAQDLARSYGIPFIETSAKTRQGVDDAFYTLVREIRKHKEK
In a further assay the target is KRas Q61H (Homo sapiens, UniProt P01116, Q61H). The assay can be described thus: KRas binding assay (TR-FRET displacement), KRas Q61H. Conditions: single point, 10 nM compound.
KRas Q61H, sequence (P01116 1-169 isoform P01116-2 Q61H): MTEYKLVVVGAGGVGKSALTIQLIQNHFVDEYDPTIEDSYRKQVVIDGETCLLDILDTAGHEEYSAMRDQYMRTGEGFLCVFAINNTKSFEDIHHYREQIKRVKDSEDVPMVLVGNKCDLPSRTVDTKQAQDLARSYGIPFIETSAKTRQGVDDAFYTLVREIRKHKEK
The test system of the next assay is MKN1 cells. Nature of the assay: Inhibition of KRas-mediated phosphorylation of ERK (Cisbio HTRF pERK), MKN1 cells. The class given is cell-based. Conditions: Homo sapiens, MKN-1, 3 hour compound incubation, Cisbio pERK HTRF. The procedure, abridged:
(§1)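 Phospho-ERK signal measured by HTRF after cells had been plated at 6,000/well in RPMI supplemented with 10% FBS on day 1.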

The test system of a further assay is PSN1 cells. The assay can be described thus: Inhibition of KRas-mediated phosphorylation of ERK (Cisbio HTRF pERK), PSN1 cells. Conditions: Homo sapiens, PSN1, 3 h, 3 hour compound incubation, Cisbio pERK HTRF. In kind it is cell-based. Put shortly:
as §1

A further assay concerns ASPC1 cells. The assay can be described thus: Inhibition of KRas-mediated phosphorylation of ERK (Cisbio HTRF pERK), ASPC1 cells. The class given is cell-based. Conditions: Homo sapiens, AsPC-1 cells; for IC50: ASPC1, 3 h, 3 hr compound incubation, Cisbio pERK HTRF.
The subject of a further assay is H727 cells. Nature of the assay: Inhibition of KRas-mediated phosphorylation of ERK (Cisbio HTRF pERK), H727 cells. The class given is cell-based. Conditions: Homo sapiens; for IC50: NCI-H727, 3 h, 3 hr compound incubation, Cisbio pERK HTRF.
Another assay concerns A549 cells. Nature of the assay: Inhibition of KRas-mediated phosphorylation of ERK (Cisbio HTRF pERK), A549 cells. In kind it is cell-based. Conditions: Homo sapiens; for IC50: A549, 3 h, 3 hr compound incubation, Cisbio pERK HTRF; for inhibition at 0.1 µM: single point at 100 nM, 3 hrs compound incubation.
The next assay deals with H460 cells. Nature of the assay: Inhibition of KRas-mediated phosphorylation of ERK (Cisbio HTRF pERK), H460 cells. The class given is cell-based. Conditions: Homo sapiens; for IC50: NCI-H460, 3 h, 3 hr compound incubation, Cisbio pERK HTRF; for inhibition at 0.1 µM: NCI-H460, single point at 100 nM, 3 hrs compound incubation.
Another assay has as its system HCT116 cells. The assay can be described thus: Inhibition of KRas-mediated phosphorylation of ERK (Cisbio HTRF pERK), HCT116 cells. In kind it is cell-based. Conditions: Homo sapiens; for IC50: HCT-116, 3 h, 3 hr compound incubation, Cisbio pERK HTRF; for inhibition at 0.1 µM: HCT-116, single point at 100 nM, 3 hrs compound incubation.
The next assay deals with H358 cells. The assay can be described thus: Inhibition of KRas-mediated phosphorylation of ERK (Cisbio HTRF pERK), H358 cells. Conditions: Homo sapiens; for IC50: NCI-H358, 3 h, 3 hr compound incubation, Cisbio pERK HTRF; for inhibition at 0.1 µM: NCI-H358, single point at 100 nM, 3 hrs compound incubation. In kind it is cell-based.
For a further assay, the target named is KRas G12D (Homo sapiens, UniProt P01116, G12D). Nature of the assay: biochemical. Conditions: Binding to KRas (IC50 nM) G12D, TR-FRET displacement, KRas G12D.
KRas G12D, sequence (P01116 1-169 isoform P01116-2 G12D): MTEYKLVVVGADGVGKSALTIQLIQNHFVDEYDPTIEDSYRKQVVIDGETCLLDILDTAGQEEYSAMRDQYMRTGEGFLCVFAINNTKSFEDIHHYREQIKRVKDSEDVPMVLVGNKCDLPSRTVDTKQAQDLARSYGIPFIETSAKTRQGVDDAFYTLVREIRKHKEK
In a further assay the target is KRas G12R (Homo sapiens, UniProt P01116, G12R). Nature of the assay: biochemical. Conditions: Binding to KRas (IC50 nM) G12R, TR-FRET displacement, KRas G12R.
KRas G12R, sequence (P01116 1-169 isoform P01116-2 G12R): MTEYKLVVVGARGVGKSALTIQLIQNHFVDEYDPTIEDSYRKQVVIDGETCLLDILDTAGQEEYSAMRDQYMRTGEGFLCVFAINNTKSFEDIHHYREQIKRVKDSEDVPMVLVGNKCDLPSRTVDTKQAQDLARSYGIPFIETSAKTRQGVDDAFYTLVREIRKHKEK
Another assay addresses KRas G12V (Homo sapiens, UniProt P01116, G12V). The assay can be described thus: biochemical. Conditions: Binding to KRas (IC50 nM) G12V, TR-FRET displacement, KRas G12V.

Each structure is given as a SMILES string.

KRas WT, sequence (P01116 1-169 isoform P01116-2): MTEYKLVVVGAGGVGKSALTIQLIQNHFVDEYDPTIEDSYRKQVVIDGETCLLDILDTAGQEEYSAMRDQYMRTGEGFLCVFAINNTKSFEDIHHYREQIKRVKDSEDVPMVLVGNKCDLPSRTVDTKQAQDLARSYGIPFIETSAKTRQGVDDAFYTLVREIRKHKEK
KRas G12V, sequence (P01116 1-169 isoform P01116-2 G12V): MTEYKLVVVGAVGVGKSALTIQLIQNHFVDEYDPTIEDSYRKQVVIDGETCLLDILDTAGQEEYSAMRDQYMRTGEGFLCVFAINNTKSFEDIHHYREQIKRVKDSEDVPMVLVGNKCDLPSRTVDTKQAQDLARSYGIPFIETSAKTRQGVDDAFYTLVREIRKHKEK

On to `CCc1c(F)ccc2cc(O)cc(N3CCc4c(nc(OC[C@@]56CCCN5C[C@H](F)C6)nc4N4CCCn5nc(C(=O)N6C7CCCC6C7)cc5C4)C3)c12` [Example 286, 6-azabicyclo[3.1.1]heptan-6-yl(5-(7-(8-ethyl-7-fluoro-3-hydroxynaphthalen-1-yl)-2-(((2R,7aS)-2-fluorohexahydro-1H-pyrrolizin-7a-yl)methoxy)-5,6,7,8-tetrahydropyrido[3,4-d]pyrimidin-4-yl)-5,6,7,8-tetrahydro-4H-pyrazolo[1,5-a][1,4]diazepin-2-yl)methanone], for which the inhibition at 0.01 µM came out at 94% at KRas WT; 94% at KRas G12A; 98% at KRas G12C; 97% on KRas G12S; 94% on KRas G13D; 95% at KRas Q61H. Besides, the IC50 with MKN1 cells is 11.9 nM; in the assay on PSN1 cells it was 3270 nM; in the assay on ASPC1 cells, 4 nM; in the assay on H727 cells, 8 nM; with A549 cells, 29 nM; in the assay on H460 cells, 49 nM. The IC50 is 211 nM in the assay with HCT116 cells; 6 nM in the assay on H358 cells; below 2 nM at KRas G12D; below 2 nM at KRas G12R; below 2 nM at KRas G12V. For the same compound, the inhibition at 0.1 µM in the assay on ASPC1 cells (ASPC1, single point at 100 nM, 3 hrs compound incubation) came out at 96%; in the assay with H727 cells (NCI-H727, single point at 100 nM, 3 hrs compound incubation) it was 80%; with A549 cells, 87%; with H460 cells, 66%; with HCT116 cells it was 46%; in the assay with H358 cells, 97%.
For the compound `CCc1c(F)ccc2cc(O)cc(N3CCc4c(nc(OC[C@@]56CCCN5C[C@H](F)C6)nc4N4CCCn5nc(C(=O)N(C)C6CC6)c(C)c5C4)C3)c12` [Example 292, N-cyclopropyl-5-(7-(8-ethyl-7-fluoro-3-hydroxynaphthalen-1-yl)-2-(((2R,7aS)-2-fluorohexahydro-1H-pyrrolizin-7a-yl)methoxy)-5,6,7,8-tetrahydropyrido[3,4-d]pyrimidin-4-yl)-N,3-dimethyl-5,6,7,8-tetrahydro-4H-pyrazolo[1,5-a][1,4]diazepine-2-carboxamide], the inhibition at 0.01 µM on KRas WT stood at 99%; at KRas G12A it was 98%; at KRas G12C, 100%; on KRas G12S it was 99%; at KRas G13D, 98%; at KRas Q61H it was 100%. The IC50 in the assay on MKN1 cells came to 2 nM; in the assay with PSN1 cells, 2230 nM; in the assay on ASPC1 cells, 2 nM; with H727 cells, 5 nM; in the assay with A549 cells, 8 nM; in the assay on H460 cells it was 17 nM. The 50% inhibitory concentration (IC50) in the assay on HCT116 cells is 40 nM; in the assay with H358 cells it was 1 nM; on KRas G12D it was below 2 nM; at KRas G12R, below 2 nM; on KRas G12V it was below 2 nM. Moreover, the inhibition at 0.1 µM was 98% with A549 cells, 93% with H460 cells, 75% with HCT116 cells and 100% in the assay with H358 cells.
`CCc1c(F)ccc2cc(O)cc(N3CCc4c(nc(OC[C@@]56CCCN5C[C@H](F)C6)nc4N4CCCn5nc(C(=O)NC6CC6)c(C)c5C4)C3)c12` [Example 293, N-cyclopropyl-5-(7-(8-ethyl-7-fluoro-3-hydroxynaphthalen-1-yl)-2-(((2R,7aS)-2-fluorohexahydro-1H-pyrrolizin-7a-yl)methoxy)-5,6,7,8-tetrahydropyrido[3,4-d]pyrimidin-4-yl)-3-methyl-5,6,7,8-tetrahydro-4H-pyrazolo[1,5-a][1,4]diazepine-2-carboxamide]: the inhibition at 0.01 µM on KRas WT came to 92%; at KRas G12A, 95%; at KRas G12C, 99%; on KRas G12S it was 99%; at KRas G13D, 91%; on KRas Q61H, 92%. In addition, the half-inhibitory concentration (IC50) came to 15.9 nM in the assay on MKN1 cells; 6010 nM in the assay on PSN1 cells; 3 nM in the assay on ASPC1 cells; 8 nM with H727 cells; 18 nM in the assay on A549 cells; 48 nM in the assay on H460 cells. Also, the 50% inhibitory concentration (IC50) was 224 nM in the assay on HCT116 cells; 3 nM with H358 cells; below 2 nM at KRas G12D; below 2 nM on KRas G12R; below 2 nM at KRas G12V. Besides, the inhibition at 0.1 µM was found to be 86% in the assay with A549 cells, 66% in the assay on H460 cells, 40% in the assay with HCT116 cells and 95% in the assay on H358 cells.
`CCc1c(F)ccc2cc(O)cc(N3CCc4c(nc(OC[C@@]56CCCN5C[C@H](F)C6)nc4N4CCCn5nc(C(=O)N(C)C)c(C6CC6)c5C4)C3)c12` [Example 294, 3-cyclopropyl-5-(7-(8-ethyl-7-fluoro-3-hydroxynaphthalen-1-yl)-2-(((2R,7aS)-2-fluorohexahydro-1H-pyrrolizin-7a-yl)methoxy)-5,6,7,8-tetrahydropyrido[3,4-d]pyrimidin-4-yl)-N,N-dimethyl-5,6,7,8-tetrahydro-4H-pyrazolo[1,5-a][1,4]diazepine-2-carboxamide]: the inhibition at 0.01 µM on KRas WT worked out at 98%; at KRas G12A it was 98%; at KRas G12C, 100%; at KRas G12S, 100%; at KRas G13D it was 98%; at KRas Q61H, 98%. Besides, the half-inhibitory concentration (IC50) stood at 4 nM in the assay on MKN1 cells; 3800 nM in the assay on PSN1 cells; 4 nM with ASPC1 cells; 10 nM in the assay on H727 cells; 7 nM with A549 cells; 15 nM with H460 cells. In addition, the half-maximal inhibitory concentration (IC50) in the assay with HCT116 cells is 41 nM; in the assay on H358 cells it was 2 nM; on KRas G12D it was below 2 nM; at KRas G12R, below 2 nM; at KRas G12V, below 2 nM. In addition, the inhibition at 0.1 µM with A549 cells stood at 82%; in the assay with H460 cells, 90%; in the assay on HCT116 cells, 72%; with H358 cells, 100%.
As to `CCc1c(F)ccc2cc(O)cc(N3CCc4c(nc(OC[C@@]56CCCN5C[C@H](F)C6)nc4N4CCCn5nc(C(=O)N(C)C)c(C(C)C)c5C4)C3)c12` [Example 295, 5-(7-(8-ethyl-7-fluoro-3-hydroxynaphthalen-1-yl)-2-(((2R,7aS)-2-fluorohexahydro-1H-pyrrolizin-7a-yl)methoxy)-5,6,7,8-tetrahydropyrido[3,4-d]pyrimidin-4-yl)-3-isopropyl-N,N-dimethyl-5,6,7,8-tetrahydro-4H-pyrazolo[1,5-a][1,4]diazepine-2-carboxamide], the inhibition at 0.01 µM at KRas WT came to 99%; at KRas G12A, 99%; at KRas G12C, 99%; on KRas G12S, 99%; on KRas G13D it was 98%; on KRas Q61H, 98%. Moreover, the IC50 in the assay with MKN1 cells was 3.5 nM; in the assay with PSN1 cells it was above 10000 nM; in the assay with ASPC1 cells, 20 nM; with H727 cells it was 23 nM; at KRas G12D, below 2 nM; on KRas G12R, below 2 nM. This compound yielded an IC50 at KRas G12V below 2 nM. Besides, the inhibition at 0.1 µM with A549 cells turned out to be 60%; in the assay with H460 cells, 84%; in the assay with HCT116 cells, 63%; in the assay on H358 cells it was 97%.

The values are drawn from US20250368649A1, “TETRAHYDROPYRIDOPYRIMIDINE PAN-KRAS INHIBITORS” (Mirati Therapeutics, Inc., priority 2022, published 2025).
